Data from ChEMBL document CHEMBL3352047, “Hybrids of phenylsulfonylfuroxan and coumarin as potent antitumor agents” (J Med Chem, 2014).
Active and inactive are the calls of the source. The rule behind the calls is not given here.

Tests used:
HUVEC = assay: cells; conditions: Homo sapiens, 48 h
Description: Antiproliferative activity against HUVEC after 48 hrs by MTT assay

[1] = Antiproliferative activity against human A2780/CDDP cells after 48 hrs by MTT assay
A549 = assay: cells; conditions: Homo sapiens, A549, 48 h
HeLa = assay: cells; conditions: Homo sapiens, 48 h
A2780 [2] = assay: Antiproliferative activity against human A2780 cells after 48 hrs by MTT assay; conditions: A2780, 48 h
A2780 [3] = assay: Induction of nitric oxide generation in human A2780 cells at 100 to 1000 nM after 1 hr by DAF-FM DA staining-based assay; assay type: functional, cell-based
A2780 [4] = assay: Induction of nitric oxide generation in human A2780 cells at 100 uM after 150 mins by Griess assay; assay type: functional

SMILES	IC50 (HUVEC) [nM]	IC50 [1] [nM]	IC50 (A549) [nM]	IC50 (HeLa) [nM]	IC50 (A2780 [2]) [nM]	Activity (A2780 [3])	Activity (A2780 [4]) [µM]
Cc1cc(=O)oc2cc(OCC(=O)OCCOc3no[n+]([O-])c3S(=O)(=O)c3ccccc3)ccc12	> 20000	7360	6920	4310	3650	–	–
Cc1cc(=O)oc2cc(SCCOc3no[n+]([O-])c3S(=O)(=O)c3ccccc3)ccc12	220	140	120	24	36	–	–
Cc1cc(=O)oc2cc(OCCCOc3no[n+]([O-])c3S(=O)(=O)c3ccccc3)ccc12	680	360	280	260	350	–	–
O=C(COc1ccc2ccc(=O)oc2c1)OCCOc1no[n+]([O-])c1S(=O)(=O)c1ccccc1	> 20000	> 20000	> 20000	> 20000	> 20000	–	–
Cc1cc(=O)oc2cc(N(C)CCOc3no[n+]([O-])c3S(=O)(=O)c3ccccc3)ccc12	890	2380	1020	510	950	–	–
Cc1cc(=O)oc2cc(NCCOc3no[n+]([O-])c3S(=O)(=O)c3ccccc3)ccc12	3040	5450	1440	1990	2450	–	–
O=c1ccc2ccc(OCCOc3no[n+]([O-])c3S(=O)(=O)c3ccccc3)cc2o1	370	200	260	110	170	–	–
Cc1cc(=O)oc2c(C)c(OCCOc3no[n+]([O-])c3S(=O)(=O)c3ccccc3)ccc12	97	330	1000	250	46	–	–
Cc1cc(=O)oc2c(C)c(Oc3no[n+]([O-])c3S(=O)(=O)c3ccccc3)ccc12	> 20000	> 20000	11700	> 20000	9350	–	–
CCOC(=O)N1CCN(/[N+]([O-])=N/Oc2ccc([N+](=O)[O-])cc2[N+](=O)[O-])CC1	5390	1050	1260	3560	630	Active	48
O=c1ccc2ccc(Oc3no[n+]([O-])c3S(=O)(=O)c3ccccc3)cc2o1	6750	3440	8860	4550	110	–	–
